Source: patent publication US6919457B2, “3-(imidazolyl)-2-aminopropanoic acids” (Pfizer, Inc., priority 2002, dated 2005)

How the values were obtained:
TAFIa = target: T1, TAFIa (Homo sapiens, UniProt Q96IY4); experiment: Assay for TAFIa inhibition (Ki determination, FAAL substrate hydrolysis); format: biochemical; settings: calculated from IC50 using the Cheng-Prusoff equation, activated human TAFI, 24° C.
T1 sequence (Q96IY4 115-423): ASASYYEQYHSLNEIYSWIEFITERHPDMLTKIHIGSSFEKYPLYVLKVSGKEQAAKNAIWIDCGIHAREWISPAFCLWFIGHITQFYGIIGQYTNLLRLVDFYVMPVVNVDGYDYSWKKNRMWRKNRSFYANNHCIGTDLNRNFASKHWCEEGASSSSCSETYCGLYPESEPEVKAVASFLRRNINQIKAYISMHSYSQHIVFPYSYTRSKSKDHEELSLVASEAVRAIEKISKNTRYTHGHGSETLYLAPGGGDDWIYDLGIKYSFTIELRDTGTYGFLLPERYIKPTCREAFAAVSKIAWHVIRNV
Procedure: The compounds of the present invention may be tested using the following assay, which is based on that disclosed in Boffa et al., J. Biol. Chem. 1998, 273, 2127. The compounds are incubated with activated TAFI and a standard substrate for TAFIa, the rate of hydrolysis of the substrate is determined and compared to the rate of hydrolysis in the absence of the compounds, and the amount of inhibition expressed in terms of Ki.
Human TAFI (recombinant or purified) was activated by incubating 20 μl of stock solution (360 μg/ml) with 10 μl of human thrombin (10 NIH units/ml), 10 μl of rabbit thrombomodulin (30 μg/ml), 6 μl calcium chloride (50 mM) in 50 μL of 20 mM HEPES (N-[2-hydroxyethyl]piperazine-N-[2-ethanesulfonic acid]) buffer containing 150 mM sodium chloride and 0.01% TWEEN 80 (polyoxyethylene-sorbitan monooleate) pH 7.6 for 20 minutes at 22° C. At the end of the incubation period, thrombin was neutralised by the addition of 10 μL of PPACK (D-Phe-Pro-Arg chloromethyl ketone) (100 nM). The resulting TAFIa solution was stored on ice for 5 minutes and finally diluted with 175 μl of HEPES buffer.
ii) Ki Determination (TAFIa)
(§1) A number of different dilutions of the test compound in water were made up. To 20 μl of each dilution was added 150 μl of HEPES buffer and 10 μl of TAFIa, which was then pre-incubated for 15 minutes at 24° C. To each dilution was then added 20 μl furylacryloyl-alanyl-lysine (FAAL) at a standard concentration. Substrate turnover was measured by reading the absorbance of the reaction mixture at 330 nm every 15 seconds for 30 minutes. The reaction was performed at 24° C. and samples were mixed for 3 seconds prior to each absorbance reading.
(§2) A graph of % inhibition against test compound concentration was then plotted; from which was calculated the IC50 value. The Ki value was then calculated using the Cheng-Prusoff equation.
Two controls, positive and negative, were used to check the accuracy of the results in each case. For the first control, the assay was performed as above, but with 20 μl of water rather than a dilution of the test compound. […] For the second control, the assay was performed as above, but with an effective amount of a non specific carboxypeptidase inhibitor rather than a dilution of the test compound.

human CPN = target: T2, human CPN (Homo sapiens, UniProt P15169); experiment: CPN Ki determination (TAFIa assay with human CPN substituted for TAFIa); format: biochemical; settings: for Ki: human CPN substituted for TAFIa, calculated Ki; for Selectivity: selectivity for TAFIa over CPN, comparing Ki for CPN with Ki for TAFIa
T2 sequence (P15169 21-458): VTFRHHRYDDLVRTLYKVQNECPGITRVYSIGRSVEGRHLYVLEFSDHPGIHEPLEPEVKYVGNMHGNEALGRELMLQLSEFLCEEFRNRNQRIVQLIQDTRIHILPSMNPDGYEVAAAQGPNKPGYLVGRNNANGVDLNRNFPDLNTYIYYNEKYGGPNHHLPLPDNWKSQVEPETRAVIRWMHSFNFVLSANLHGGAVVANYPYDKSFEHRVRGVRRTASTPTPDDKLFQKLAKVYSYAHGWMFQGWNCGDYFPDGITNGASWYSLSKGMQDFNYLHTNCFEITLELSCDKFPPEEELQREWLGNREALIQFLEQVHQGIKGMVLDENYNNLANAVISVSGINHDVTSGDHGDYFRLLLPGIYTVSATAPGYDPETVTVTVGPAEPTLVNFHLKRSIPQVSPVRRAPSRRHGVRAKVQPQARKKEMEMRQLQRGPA
T2 sequence (P22792 22-545 partner): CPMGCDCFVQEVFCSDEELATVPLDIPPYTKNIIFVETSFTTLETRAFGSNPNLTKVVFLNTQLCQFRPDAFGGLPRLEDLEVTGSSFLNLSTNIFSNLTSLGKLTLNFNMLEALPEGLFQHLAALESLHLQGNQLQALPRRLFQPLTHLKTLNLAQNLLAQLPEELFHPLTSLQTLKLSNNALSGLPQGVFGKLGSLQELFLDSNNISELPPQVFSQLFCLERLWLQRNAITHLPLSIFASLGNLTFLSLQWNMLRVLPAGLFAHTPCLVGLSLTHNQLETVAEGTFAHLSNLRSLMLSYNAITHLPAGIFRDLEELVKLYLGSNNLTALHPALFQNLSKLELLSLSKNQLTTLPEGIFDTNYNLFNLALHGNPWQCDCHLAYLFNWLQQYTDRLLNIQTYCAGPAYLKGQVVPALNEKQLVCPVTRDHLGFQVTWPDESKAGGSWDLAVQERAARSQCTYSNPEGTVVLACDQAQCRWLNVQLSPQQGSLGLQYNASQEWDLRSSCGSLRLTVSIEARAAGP
Procedure: as §1, §2
The selectivity of the compounds of the present invention for TAFIa over CPN was determined by calculating the Ki of the compounds of the present invention for CPN, then comparing it to the Ki for TAFIa. The Ki was calculated using the assay for the calculation of TAFIa Ki, but substituting 10 μl of human CPN for 10 μl of TAFIa.

N[C@H]1CCN([C@@H](Cc2c[nH]cn2)C(=O)O)C1 [Example 2, (+)-(2S)-2-[(3S)-3-Aminopyrrolidinyl]-3-(1H-imidazol-4-yl)propanoic Acid]
Ki (TAFIa): 60 nM

CCCn1cnc(C[C@@H](C(=O)O)N2CC[C@H](N)C2)c1 [Example 4, (+)-(2S)-2-[(3S)-3-Aminopyrrolidinyl]-3-(1-propyl-1H-imidazol-4-yl)propanoic Acid]
Ki (TAFIa): 22 nM
Ki (human CPN): > 10000 nM
Selectivity (human CPN): >450

N[C@H]1CCN([C@@H](Cc2cn(CCC3CCCCC3)cn2)C(=O)O)C1 [Example 6, (+)-(2S)-2-[(3S)-3-Aminopyrrolidinyl]-3-[1-(2-cyclohexylethyl)-1H-imidazol-4-yl]propanoic Acid]
Ki (TAFIa): 7 nM
Ki (human CPN): > 10000 nM
Selectivity (human CPN): >1400

N[C@H]1CCN([C@@H](Cc2cn(CCc3ccccc3)cn2)C(=O)O)C1 [Example 8, (+)-(2S)-2-[(3S)-3-Aminopyrrolidinyl]-3-[1-(2-phenylethyl)-1H-imidazol-4-yl]propanoic Acid]
Ki (TAFIa): 10 nM

N[C@H]1CCN([C@@H](Cc2cn(-c3ccccc3)cn2)C(=O)O)C1 [Example 9, (+)-(2S)-2-[(3S)-3-Aminopyrrolidinyl]-3-[1-phenyl-1H-imidazol-4-yl]propanoic Acid]
Ki (TAFIa): 8 nM
